# Experimental data from ChEMBL document CHEMBL1201862, “PubChem BioAssay data set” (2004).
# “And” between values parts separate entries of the source, which are not always exact repeats. Equal values may be shown once. The source made the active and inactive calls.
# Legend:
# [1] = viability loss in LCL cells – cell-based, plate reader, dry powder, set 2, cytotoxicity control, dose response (AID 624367); format: functional
# [2] = cytotoxicity in HEK293 background cells – cell-based, dry powder, set 2, counter-screen for EBV LMP1 inhibitor project, dose response (AID 624374); format: functional
# [3] = Counterscreen for […] of the human trace amine associated receptor 1 (TAAR1): Fluorescence-based cell-based high throughput dose response assay to identify nonselective Ga16 agonists.; format: functional
# [4] = Counterscreen for antagonists of the human trace amine associated receptor 1 (hTAAR1): Fluorescence-based cell-based high throughput dose response assay to identify nonselective Ga16 antagonists.; format: functional
# [5] = target: Beta Lactamase (Pseudomonas aeruginosa, UniProt Q932Y6); test: BLA reporter interference, concentration series – BLA reporter cells, FRET fluorescence, artefact control for TLR9-MyD88 binding inhibitor project, dose response (AID 588341); format: cell-based;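 further: cell based assay in CHO-K1 cells stably expressing beta-lactamase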
# [6] = test system: Vero; test: viability of Vero cells under compound – cytotoxicity control for flavivirus capping enzyme inhibitors (AID 588742); format: functional; details: Chlorocebus sabaeus
# [7] = target: Genome polyprotein (dengue virus type 2, UniProt P29990); test: flavivirus cap methylation enzyme inhibition – biochemical, confirmation dose response, primary screen (AID 588689); format: functional
# [8] = target: T1, Polyadenylate-binding protein 1 (Homo sapiens, UniProt P11940); test: MLLE domain peptide-binding blockers, IC50 – biochemical, fluorescence polarization, FITC-PAM2 peptide, dose response (AID 602259); format: functional; details: read-out: IC50_Mean
# T1 sequence (P11940 whole entry, the tested form may be a part): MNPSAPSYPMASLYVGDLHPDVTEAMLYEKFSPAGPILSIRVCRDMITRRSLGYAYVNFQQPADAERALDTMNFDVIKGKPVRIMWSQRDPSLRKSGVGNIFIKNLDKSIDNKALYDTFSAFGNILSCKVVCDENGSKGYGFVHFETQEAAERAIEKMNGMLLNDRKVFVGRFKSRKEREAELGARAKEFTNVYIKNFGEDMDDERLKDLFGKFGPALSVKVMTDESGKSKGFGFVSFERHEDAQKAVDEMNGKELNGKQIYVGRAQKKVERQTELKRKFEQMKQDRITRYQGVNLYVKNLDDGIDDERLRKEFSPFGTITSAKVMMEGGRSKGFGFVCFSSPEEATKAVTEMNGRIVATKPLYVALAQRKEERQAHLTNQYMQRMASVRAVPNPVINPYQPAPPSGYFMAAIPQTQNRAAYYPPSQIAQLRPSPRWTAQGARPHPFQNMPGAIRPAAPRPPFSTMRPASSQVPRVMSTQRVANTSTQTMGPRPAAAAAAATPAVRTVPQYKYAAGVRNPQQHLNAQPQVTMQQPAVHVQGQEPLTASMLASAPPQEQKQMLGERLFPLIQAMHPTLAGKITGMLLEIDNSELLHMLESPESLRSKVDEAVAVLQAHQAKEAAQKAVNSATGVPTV
# [9] = target: T1, Polyadenylate-binding protein 1; test: MLLE binding blockers, Cy5 peptide tracer – biochemical, fluorescence polarization, Cy5-PAM2 peptide, secondary, miRNA deadenylation inhibitor project, dose response (AID 602260); format: functional; details: read-out: IC50_Mean
# [10] = HGIII-sPLA2 enzyme inhibition potency – biochemical, QFRET, IC50, dose response (AID 743457);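 further: green fluorescence rise as the enzyme cleaves BODIPY PC-A2 in liposomes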
# [11] = test system: CHO; test: CHO cell viability loss, potency – luminescence, cytotoxicity control for TLR9-MyD88 binding inhibitor project, dose response (AID 588339); format: functional, cell-based, hamster; details: Cricetulus griseus;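 further: CHO cells stably coexpressing TLR9 and MyD88 fusions from primary screen; compound exposure lasted 48 hours before viability readout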
# [12] = target: Paired box protein Pax-8 (Homo sapiens, UniProt Q06710); test: PAX8 transcriptional activity inhibition in RMG-I – RMG-I cells, luciferase, cherry-pick, dose response (AID 687027); format: functional, cell-based;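 further: luciferase reporter driven by Pax8 target thyroperoxidase promoter measured by SteadyGlo luminescence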
# Sequence of Paired box protein Pax-8 (Q06710 whole entry): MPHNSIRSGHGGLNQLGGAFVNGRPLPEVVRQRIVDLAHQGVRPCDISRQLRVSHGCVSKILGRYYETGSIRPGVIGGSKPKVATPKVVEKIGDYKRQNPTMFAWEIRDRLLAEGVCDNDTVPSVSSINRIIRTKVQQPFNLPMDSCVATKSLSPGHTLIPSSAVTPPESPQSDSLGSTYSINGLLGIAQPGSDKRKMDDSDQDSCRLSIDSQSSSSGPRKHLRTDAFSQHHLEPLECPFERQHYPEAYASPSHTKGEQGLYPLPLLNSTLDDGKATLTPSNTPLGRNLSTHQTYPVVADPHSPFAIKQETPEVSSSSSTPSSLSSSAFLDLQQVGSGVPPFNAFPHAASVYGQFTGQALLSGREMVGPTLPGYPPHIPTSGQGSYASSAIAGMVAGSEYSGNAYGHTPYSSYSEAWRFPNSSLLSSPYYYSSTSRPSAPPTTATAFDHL
# [13] = general cell-killing toxicity readout – plate reader, dry powder samples, cytotoxicity control for PAX8 inhibitor project, dose response (AID 743021); format: functional, cell-based
# [14] = test system: HEK293; test: EBV LMP1 TES2 canonical NF-kB signalling blockers – cell-based, HEK293, luciferase, cherry-pick, dose response (AID 588343); format: functional; details: Homo sapiens
# [15] = inhibitors of EBV LMP1 NF-kappaB signaling – cell-based, luciferase reporter, luminescence, dry powder, set 2, dose response (AID 624376); format: functional
# [16] = target: T2, Ubiquitin-conjugating enzyme E2 N (Homo sapiens, UniProt P61088); format: functional;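 further: Dose-response confirmation in a TR-FRET assay detecting UBC13-driven polyubiquitin chain formation, inhibition measured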
# T2 sequence (P61088 whole entry): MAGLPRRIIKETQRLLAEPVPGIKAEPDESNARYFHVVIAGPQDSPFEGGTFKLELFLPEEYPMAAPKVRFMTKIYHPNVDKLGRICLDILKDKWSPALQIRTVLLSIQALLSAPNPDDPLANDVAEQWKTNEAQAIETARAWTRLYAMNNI
# [17] = target: DNA repair protein RAD52 homolog (Homo sapiens, UniProt P43351); format: functional, biochemical
# [18] = test system: HeLa; test: viability loss in HeLa cells – cell-based, ATP luminescence, cherry-pick samples, cytotoxicity control, dose response (AID 687004); format: functional; details: Homo sapiens
# [19] = target: T3, Beta-lactamase (Pseudomonas aeruginosa, UniProt Q79MP6); test: inhibition of IMP-1 beta-lactamase activity – biochemical, epi-absorbance, selectivity assay for VIM-2 inhibitor project, dose response (AID 1920)
# T3 sequence (Q79MP6 whole entry): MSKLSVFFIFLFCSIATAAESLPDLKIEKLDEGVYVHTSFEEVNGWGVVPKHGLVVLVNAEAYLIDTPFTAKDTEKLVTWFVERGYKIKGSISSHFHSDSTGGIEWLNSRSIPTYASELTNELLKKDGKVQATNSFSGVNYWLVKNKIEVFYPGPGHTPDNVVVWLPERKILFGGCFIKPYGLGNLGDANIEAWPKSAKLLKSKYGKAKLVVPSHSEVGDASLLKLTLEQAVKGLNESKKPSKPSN
# [20] = target: Beta-lactamase (Salmonella choleraesuis (strain SC-B67), UniProt Q5J463); test: Epi-absorbance-based counterscreen for selective VIM-2 inhibitors: dose response biochemical high throughput screening assay to identify inhibitors of TEM-1 serine-beta-lactamase.
# Sequence of Beta-lactamase (Salmonella choleraesuis (strain SC-B67), UniProt Q5J463) (Q5J463 whole entry): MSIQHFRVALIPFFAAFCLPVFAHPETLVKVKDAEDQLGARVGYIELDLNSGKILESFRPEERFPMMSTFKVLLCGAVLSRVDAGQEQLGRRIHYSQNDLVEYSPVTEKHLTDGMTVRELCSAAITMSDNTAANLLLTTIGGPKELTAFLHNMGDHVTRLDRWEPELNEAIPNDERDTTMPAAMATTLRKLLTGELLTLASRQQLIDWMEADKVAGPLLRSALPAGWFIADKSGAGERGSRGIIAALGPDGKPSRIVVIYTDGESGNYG
# [21] = target: T3, Beta-lactamase; test: […] counterscreen for selective VIM-2 inhibitors: dose response biochemical high throughput screening assay to identify inhibitors of IMP-1 metallo-beta-lactamase.
# [22] = target: T4, Sentrin-specific protease 1 (Homo sapiens, UniProt Q9P0U3); test: SENP1 catalytic domain blockers, concentration series – biochemical, kinetic FRET, dose response (AID 651697); format: functional; details: read-out: IC50_Mean
# T4 sequence (Q9P0U3 whole entry, the tested form may be a part): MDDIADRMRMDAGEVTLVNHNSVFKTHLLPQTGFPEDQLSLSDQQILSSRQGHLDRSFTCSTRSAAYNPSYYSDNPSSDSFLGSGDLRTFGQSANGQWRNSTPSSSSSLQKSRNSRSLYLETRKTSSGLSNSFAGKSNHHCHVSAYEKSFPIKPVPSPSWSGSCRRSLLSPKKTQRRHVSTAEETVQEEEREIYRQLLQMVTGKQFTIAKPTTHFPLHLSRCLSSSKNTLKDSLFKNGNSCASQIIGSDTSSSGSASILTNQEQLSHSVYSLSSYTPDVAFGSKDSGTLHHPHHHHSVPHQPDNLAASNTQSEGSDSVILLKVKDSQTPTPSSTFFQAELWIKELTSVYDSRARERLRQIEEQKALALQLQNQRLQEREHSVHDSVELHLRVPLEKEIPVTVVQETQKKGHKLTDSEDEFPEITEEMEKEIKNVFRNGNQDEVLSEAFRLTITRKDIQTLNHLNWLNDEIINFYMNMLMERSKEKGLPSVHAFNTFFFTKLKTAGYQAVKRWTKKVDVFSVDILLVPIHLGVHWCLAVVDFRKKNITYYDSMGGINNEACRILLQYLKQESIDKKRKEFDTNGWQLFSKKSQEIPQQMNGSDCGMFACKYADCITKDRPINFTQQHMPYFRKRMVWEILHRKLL
# [23] = target: T4, Sentrin-specific protease 1; test: Dose response confirmation of small molecule inhibitors of the catalytic domain of the SUMO protease, SENP1 in a FRET assay.; format: functional; details: read-out: IC50_Mean
# [24] = test system: Cryptococcus neoformans; test: Cryptococcus growth inhibition by alamar blue – cell lysis, cherry-picks, replicate tests, mechanism study for C. neoformans antifungal project, dose response (AID 686999); format: functional, organism-based
# [25] = test system: Cryptococcus neoformans; test: PubChem AID 686997; format: functional, organism-based
# [26] = target: Albumin (Bos taurus, UniProt P02769); test: Counterscreen for inhibitors of T-cell receptor (TCR)-CD3 interaction: Fluorescence-based biochemical high throughput dose response assay to identify inhibitors of T-cell receptor (TCR)-CD3 interaction using a TAMRA-labeled BSA probe.; format: functional
# Sequence of Albumin (P02769 whole entry): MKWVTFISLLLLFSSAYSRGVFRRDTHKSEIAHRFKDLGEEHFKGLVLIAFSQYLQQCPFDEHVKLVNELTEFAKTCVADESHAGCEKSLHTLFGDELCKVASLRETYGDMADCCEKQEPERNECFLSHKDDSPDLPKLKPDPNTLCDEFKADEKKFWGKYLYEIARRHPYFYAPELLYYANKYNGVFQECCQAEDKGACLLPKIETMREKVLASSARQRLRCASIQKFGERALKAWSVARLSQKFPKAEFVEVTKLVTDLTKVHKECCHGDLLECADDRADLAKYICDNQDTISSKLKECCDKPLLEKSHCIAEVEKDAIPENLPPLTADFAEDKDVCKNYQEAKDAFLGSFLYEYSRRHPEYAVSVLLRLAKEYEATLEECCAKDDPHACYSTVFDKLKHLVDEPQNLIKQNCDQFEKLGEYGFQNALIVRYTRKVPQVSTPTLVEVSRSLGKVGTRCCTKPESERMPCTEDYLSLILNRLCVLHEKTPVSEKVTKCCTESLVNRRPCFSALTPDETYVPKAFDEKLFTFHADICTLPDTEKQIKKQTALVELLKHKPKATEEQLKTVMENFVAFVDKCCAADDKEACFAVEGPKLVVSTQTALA
# [27] = test system: H4; test: Luminescence Cell-Based Dose Response HTS to Identify Activators of 5'UTR Stem-Loop Driven Prion Protein mRNA Translation in H4 Neuroglioblastoma Cells. [Related pubchem assays: 1829 (Project Summary), 1814 (Primary HTS)]; format: functional; details: Homo sapiens
# [28] = cells; format: functional, cell-based
# [29] = acridine orange displacement from DNA – biochemical, fluorescence polarization, cherry-pick, artefact control for RAD54 inhibitor project, dose response (AID 651673); format: functional
# [30] = target: Cytochrome P450 2C19 (Homo sapiens, UniProt P33261); test: Cytochrome panel assay with activity outcomes. Panel member name: p450-cyp2c19 Compounds with AC50 equal or less than 10 uM are considered active; format: functional; details: read-out: AC50
# Sequence of Cytochrome P450 2C19 (P33261 whole entry): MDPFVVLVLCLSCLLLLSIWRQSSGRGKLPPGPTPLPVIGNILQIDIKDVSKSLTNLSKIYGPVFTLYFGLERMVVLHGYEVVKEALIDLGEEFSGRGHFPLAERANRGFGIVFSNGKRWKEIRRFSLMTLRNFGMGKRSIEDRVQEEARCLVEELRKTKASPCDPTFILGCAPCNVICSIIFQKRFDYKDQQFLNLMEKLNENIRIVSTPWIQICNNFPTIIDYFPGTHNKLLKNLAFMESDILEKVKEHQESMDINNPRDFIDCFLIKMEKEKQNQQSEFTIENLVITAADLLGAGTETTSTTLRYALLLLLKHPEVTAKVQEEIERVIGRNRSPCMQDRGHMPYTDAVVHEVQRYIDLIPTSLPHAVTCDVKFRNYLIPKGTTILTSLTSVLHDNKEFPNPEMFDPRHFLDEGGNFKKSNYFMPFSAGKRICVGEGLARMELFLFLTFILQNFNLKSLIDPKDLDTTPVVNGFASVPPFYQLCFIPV
# [31] = Luminescence Cell-Based Dose Confirmation HTS to Identify Activators of 5'UTR Stem-Loop Driven Alpha-Synuclein mRNA Translation in H4 Neuroglioblastoma Cells. [Related pubchem assays: 1829 (Project Summary), 1814 (Primary HTS)]; format: functional
# [32] = target: Cytochrome P450 2D6 (Homo sapiens, UniProt P10635);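 further: CYP2D6 member of a cytochrome P450 panel assay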
# Sequence of Cytochrome P450 2D6 (P10635 whole entry): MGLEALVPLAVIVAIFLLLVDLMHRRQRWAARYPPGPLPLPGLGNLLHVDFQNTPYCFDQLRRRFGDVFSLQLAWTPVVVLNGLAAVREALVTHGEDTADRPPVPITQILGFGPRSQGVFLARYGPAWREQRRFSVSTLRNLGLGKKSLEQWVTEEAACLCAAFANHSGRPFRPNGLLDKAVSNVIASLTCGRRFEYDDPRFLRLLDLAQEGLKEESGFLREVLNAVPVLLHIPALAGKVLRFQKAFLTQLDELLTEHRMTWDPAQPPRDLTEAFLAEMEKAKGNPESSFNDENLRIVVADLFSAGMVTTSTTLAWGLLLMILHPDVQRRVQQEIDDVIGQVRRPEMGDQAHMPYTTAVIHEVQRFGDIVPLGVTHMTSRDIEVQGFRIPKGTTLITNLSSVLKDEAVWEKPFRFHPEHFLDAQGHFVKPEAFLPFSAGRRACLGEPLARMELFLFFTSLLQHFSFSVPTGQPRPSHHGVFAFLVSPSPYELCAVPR
# [33] = Luminescence Cell-Based Dose Response HTS to Identify Activators of Luciferase Translation or Activity in H4 […] Cells. [Related pubchem assays: 1829 (Project Summary), 1814 (Primary HTS)]; format: functional
# [34] = target: T5, DNA repair and recombination protein RAD54-like (Homo sapiens, UniProt Q92698); test: RAD54 Holliday junction migration blockers – biochemical, fluorescence, cherry-picked samples, dose series, confirmation (AID 651657); format: functional
# T5 sequence (Q92698 whole entry): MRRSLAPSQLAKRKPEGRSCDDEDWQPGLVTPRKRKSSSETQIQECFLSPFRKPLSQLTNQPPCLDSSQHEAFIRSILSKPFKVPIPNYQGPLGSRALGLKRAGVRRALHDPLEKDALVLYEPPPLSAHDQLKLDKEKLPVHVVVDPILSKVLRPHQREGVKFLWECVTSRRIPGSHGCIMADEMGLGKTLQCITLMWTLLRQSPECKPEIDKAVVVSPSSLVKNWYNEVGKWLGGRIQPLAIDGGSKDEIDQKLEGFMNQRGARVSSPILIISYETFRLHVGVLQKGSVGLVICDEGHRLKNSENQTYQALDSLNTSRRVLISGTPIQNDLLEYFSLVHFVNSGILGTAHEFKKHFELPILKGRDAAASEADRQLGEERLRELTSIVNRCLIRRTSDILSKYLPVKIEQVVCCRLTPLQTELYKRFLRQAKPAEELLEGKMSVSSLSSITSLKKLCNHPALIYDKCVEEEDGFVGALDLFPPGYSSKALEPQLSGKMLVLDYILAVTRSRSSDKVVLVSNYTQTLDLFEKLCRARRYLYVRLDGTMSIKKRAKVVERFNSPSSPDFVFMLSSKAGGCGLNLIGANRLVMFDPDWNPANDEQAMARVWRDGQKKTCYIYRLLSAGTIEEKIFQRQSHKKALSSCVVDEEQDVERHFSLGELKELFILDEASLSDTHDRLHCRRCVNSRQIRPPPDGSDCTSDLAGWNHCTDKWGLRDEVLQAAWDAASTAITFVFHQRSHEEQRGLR
# [35] = cells; format: functional, cell-based; remark: listed apart in the source
# [36] = target: Nuclear receptor subfamily 5 group A member 2 (Homo sapiens, UniProt O00482); format: functional, cell-based;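 further: HEK293T cells transfected with LRH-1 and a StAR promoter luciferase reporter; potency for inhibitors that lower LRH-1 driven reporter light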
# Sequence of Nuclear receptor subfamily 5 group A member 2 (O00482 whole entry): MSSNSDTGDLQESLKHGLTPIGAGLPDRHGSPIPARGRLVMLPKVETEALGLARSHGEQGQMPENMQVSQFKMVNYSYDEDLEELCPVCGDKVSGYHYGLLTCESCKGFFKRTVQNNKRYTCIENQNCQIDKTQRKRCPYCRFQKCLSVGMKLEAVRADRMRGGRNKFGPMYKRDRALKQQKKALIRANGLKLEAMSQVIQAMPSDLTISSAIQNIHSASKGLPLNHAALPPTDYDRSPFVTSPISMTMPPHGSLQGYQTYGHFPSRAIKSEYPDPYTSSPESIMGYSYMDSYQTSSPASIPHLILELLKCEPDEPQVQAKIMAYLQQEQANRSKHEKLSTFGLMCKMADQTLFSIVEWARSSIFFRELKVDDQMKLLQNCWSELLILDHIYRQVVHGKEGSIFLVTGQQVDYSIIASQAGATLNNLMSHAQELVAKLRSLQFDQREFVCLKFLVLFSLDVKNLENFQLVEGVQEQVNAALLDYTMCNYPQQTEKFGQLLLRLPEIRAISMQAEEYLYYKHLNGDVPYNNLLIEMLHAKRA
# [37] = target: Steroidogenic factor 1 (Homo sapiens, UniProt Q13285); test: Counterscreen for inverse agonists of the liver receptor homolog-1 (LRH-1; NR5A2): Luminescence-based cell-based high throughput dose response assay to identify inverse agonists of the Steroidogenic Factor 1 Nuclear Receptor (SF1; NR5A1).; format: functional
# [38] = nonselective StAR promoter luciferase inhibitors – cell-based, luminescence, luciferase reporter, counter-screen for LRH-1 inverse agonist project, dose response (AID 651969); format: functional
# [39] = target: Fructose-bisphosphate aldolase (Mycobacterium tuberculosis, UniProt P9WQA3); test: Fluorescence-based biochemical high throughput dose response assay for inhibitors of the fructose-bisphosphate aldolase (FBA) of M. tuberculosis.; format: functional
# [40] = target: Induced myeloid leukemia cell differentiation protein Mcl-1 (Homo sapiens, UniProt Q07820); format: functional
# Sequence of Induced myeloid leukemia cell differentiation protein Mcl-1 (Q07820 whole entry): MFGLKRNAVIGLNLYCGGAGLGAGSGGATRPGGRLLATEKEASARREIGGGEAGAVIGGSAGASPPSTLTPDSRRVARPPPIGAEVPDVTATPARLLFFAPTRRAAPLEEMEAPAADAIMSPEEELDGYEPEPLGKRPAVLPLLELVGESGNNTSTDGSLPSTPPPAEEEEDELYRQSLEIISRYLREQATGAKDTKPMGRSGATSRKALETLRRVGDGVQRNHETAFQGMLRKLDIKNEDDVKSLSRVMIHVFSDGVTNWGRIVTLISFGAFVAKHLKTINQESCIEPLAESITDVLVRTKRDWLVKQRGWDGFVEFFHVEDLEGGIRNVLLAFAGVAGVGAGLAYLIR
# [41] = target: Matrix metalloproteinase-14 (Homo sapiens, UniProt P50281); test: Dose Response confirmation of uHTS hits for a small molecule inhibitors of MT1-MMP activation in a fluorescence assay set 2.; format: functional
smiles,measurement,setting,value
O=C(C[C@H]1C[C@H]2c3cc(NS(=O)(=O)c4ccc(F)cc4)ccc3O[C@H]2[C@H](CO)O1)NCc1ccc(Oc2ccccc2)cc1,AbsAC35,[1],45.43 µM
same,AbsAC35,[2],70.4 µM
O=C(CCC(=O)N1CCOCC1)NCCc1ccc(F)cc1,EC50,[3],> 29.9 µM (inactive)
same,IC50,[4],> 29.9 µM (inactive)
COc1ccccc1N(C(C)=O)C1=C(Cl)C(=O)c2ccccc2C1=O,IC50,[5],5.37 µM (active)
same,CC50,[6],22.6 µM (active)
same,IC50,[7],9.2 µM (active)
same,IC50,[8],> 66 µM (inactive)
same,IC50,[9],> 66 µM (inactive)
same,IC50,[10],> 122 µM (inactive)
same,IC50,[11],1.03 µM (active)
same,AC50,[12],3.59 µM (active)
same,AC50,[13],27.8 µM (active)
same,AC50,[14],5.98 µM (active)
CC(C)(C)[S@@+]([O-])N1Cc2cc(C(=O)NCc3ccccn3)nc(-c3cccc(-c4ccccc4F)c3)c2[C@H]1CCO,AbsAC35,[15],49.61 µM
CN1CCN(CCCNC(=O)c2ccc(/C=C3\Oc4ccccc4N(Cc4ccccc4F)C3=O)cc2)CC1,IC50,[16],> 20 µM (inactive)
same,AC50,[17],8.16 µM (active)
same,AC50,[18],17 µM (active)
O=C(CSc1nnc(NC(=O)C2CCCCC2)s1)NCc1ccco1,IC50,[19],> 59.6 µM (inactive)
same,IC50,[20],> 59.6 µM (inactive)
same,IC50,[21],> 59.6 µM (inactive)
Oc1nc2cc3ccccc3cc2nc1-c1nnnn1C1CCCC1,IC50,[22],2.21 µM (active)
same,IC50,[23],1.05 µM (active)
COC(=O)C1=C(C)N(Cc2ccccc2)C(=S)N[C@H]1c1ccc(Br)cc1,AC50,[24],42.2 µM (active)
same,AC50,[25],50.4 µM (active) and 14.1 µM (active)
Cn1c(SCC(=O)NNC(=O)c2ccccc2O)nnc1-c1ccccc1,IC50,[26],> 94.2 µM (inactive)
Cc1cc(C)c2c(N)c3ccccc3nc2n1,EC50,[27],> 120 µM (not active)
same,EC50,[28],32.3 µM (active)
same,AC50,[29],41.4 µM (active)
same,AC50,[30],5.62 µM (inconclusive)
same,EC50,[31],3.6 µM (active)
same,AC50,[32],20 µM (inconclusive)
same,EC50,[33],8.34 µM (active)
same,AC50,[34],5.7 µM (active)
same,EC50,[35],> 350 µM (not active)
CCCc1cc(=O)oc2c(C)c(OCC(=O)NCCN3CCOCC3)ccc12,IC50,[36],35.9 µM (inactive)
same,IC50,[37],12.4 µM (inactive)
same,IC50,[38],35.9 µM (inactive)
CNc1ccc2ncc(-c3ccc(OC)c(OC)c3)n2n1,IC50,[39],1.69 µM (active)
Cc1ccc(C(=O)NNc2c3ccccc3nc3ccccc23)cc1,IC50,[40],5.38 µM (active)
same,IC50,[41],> 80 µM (inactive)
